This passage reports IC50 results from US9216991B2 (Ares Trading S.A., priority 2012, dated 2015).

The term IC50 denotes the midpoint of a concentration-inhibition curve.

Structures are written as SMILES. Counter-ions that a name gives are not always drawn. Where only a bound is given, the exact number is not on record here.

In this assay the target is T1, IRAK4 (Homo sapiens, UniProt Q9NWZ3).
T1 construct: His (N); TEV cleavage site (N)
T1 sequence (Q9NWZ3 1-460): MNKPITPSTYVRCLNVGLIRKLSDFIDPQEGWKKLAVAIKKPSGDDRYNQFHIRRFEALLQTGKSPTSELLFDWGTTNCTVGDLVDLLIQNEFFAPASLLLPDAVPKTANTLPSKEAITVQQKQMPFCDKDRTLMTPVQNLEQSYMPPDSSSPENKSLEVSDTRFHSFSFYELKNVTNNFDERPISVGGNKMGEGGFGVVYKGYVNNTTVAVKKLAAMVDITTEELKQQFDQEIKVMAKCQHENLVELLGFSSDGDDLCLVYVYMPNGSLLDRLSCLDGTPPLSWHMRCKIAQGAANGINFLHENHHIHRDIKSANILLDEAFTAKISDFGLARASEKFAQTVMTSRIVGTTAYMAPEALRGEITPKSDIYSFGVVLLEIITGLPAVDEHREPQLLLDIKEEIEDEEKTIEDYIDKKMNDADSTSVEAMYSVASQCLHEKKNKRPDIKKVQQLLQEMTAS
The assay is described as follows: IRAK4 Enzymatic Assay. Format: biochemical. The conditions noted are these: His-TEV-IRAK4 20 ng/well, ATP 2 μM, STK1-biotin peptide 300 nM, 3 hours at 30° C., FlashPlate radioactivity. The essentials: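 Recombinant His-TEV-tagged IRAK4 (20 ng/well) phosphorylates biotinylated STK1 peptide (300 nM) with 2 μM ATP plus [^33P]ATP, 3 h at 30 °C in pH 7.0 HEPES buffer with MgCl2 and MnCl2; compounds tested 20 μM to 1 nM. Reaction stopped with EDTA; incorporated radioactivity counted on streptavidin FlashPlates.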
Consider `CO[C@H]1CC[C@@H](n2cc(-c3cnc(-c4cccc(-c5cnn(C)c5)c4)nc3)cn2)CC1` [Example 252, Cis-5-[1-(4-Methoxy-cyclohexyl)-1H-pyrazol-4-yl]-2-[3-(1-methyl-1H-pyrazol-4-yl)-phenyl]-pyrimidine], for which the IC50 is less than 100 nM. Under `CO[C@@H]1CCN(C(=O)[C@H]2CC[C@H](n3cc(-c4cnc(-c5cccc(-c6cnn(C)c6)c5)nc4)cn3)CC2)C1` [Example 168, ((R)-3-Methoxy-pyrrolidin-1-yl)-trans-[4-(4-{2-[3-(1-methyl-1H-pyrazol-4-yl)-phenyl]-pyrimidin-5-yl}-pyrazol-1-yl)-cyclohexyl]-methanone] stands less than 100 nM; under `CC1COCCC1N1CCC(n2cc(-c3cnc(-c4cccc(-c5cnn(C)c5)c4)nc3)cn2)CC1` (stereo not drawn) [Example 275, 2-[3-(1-Methyl-1H-pyrazol-4-yl)-phenyl]-5-{1-[1-(3-methyl-tetrahydro-pyran-4-yl)-piperidin-4-yl]-1H-pyrazol-4-yl}-pyrimidine], less than 100 nM. With `CN(C)C(=O)[C@H]1CC[C@@H](n2cc(-c3cnc(-c4cccc(-c5cnn(C)c5)c4)nc3)cn2)CC1` [Example 135, Cis-4-(4-{2-[3-(1-Methyl-1H-pyrazol-4-yl)-phenyl]-pyrimidin-5-yl}-pyrazol-1-yl)-cyclohexanecarboxylic acid dimethylamide], the concentration for half-maximal inhibition (IC50) was in the range of 100 to 1000 nM. Consider `CNC(=O)[C@H]1CCC[C@@H](n2cc(-c3cnc(-c4cccc(-c5cnn(C)c5)c4)nc3)cn2)C1` (relative stereo) [Example 180, cis-3-(4-{2-[3-(1-Methyl-1H-pyrazol-4-yl)-phenyl]-pyrimidin-5-yl}-pyrazol-1-yl)-cyclohexanecarboxylic acid methylamide], for which the IC50 is 100 to 1000 nM. Turning to `CC(=O)N1CC[C@H](n2cc(-c3cnc(-c4cccc(-c5cnn(C)c5)c4)nc3)cn2)C[C@@H]1C` [Example 248, 1-[(2S,4S)-2-Methyl-4-(4-{2-[3-(1-methyl-1H-pyrazol-4-yl)-phenyl]-pyrimidin-5-yl}-pyrazol-1-yl)-piperidin-1-yl]-ethanone], the IC50 was less than 100 nM. Consider `COCCNC(=O)[C@H]1CC[C@H](n2cc(-c3cnc(-c4cccc(-c5cnn(C)c5)c4)nc3)cn2)CC1` [Example 159, Trans-4-(4-{2-[3-(1-Methyl-1H-pyrazol-4-yl)-phenyl]-pyrimidin-5-yl}-pyrazol-1-yl)-cyclohexanecarboxylic acid (2-methoxy-ethyl)-amide], for which the half-maximal inhibitory concentration (IC50) was less than 100 nM. Take `Cn1cc(-c2cccc(-c3ncc(-c4cnn([C@H]5CC[C@H](C(=O)NC6CC6)CC5)c4)cn3)c2)cn1` [Example 170, Trans-4-(4-{2-[3-(1-Methyl-1H-pyrazol-4-yl)-phenyl]-pyrimidin-5-yl}-pyrazol-1-yl)-cyclohexanecarboxylic acid cyclopropylamide]: the IC50 is less than 100 nM. As for `Cn1cc(-c2cccc(-c3ncc(-c4cnn(C[C@@H]5CCCN5)c4)cn3)c2)cn1` [Example 70, 2-[3-(1-Methyl-1H-pyrazol-4-yl)-phenyl]-5-(1-(S)-1-pyrrolidin-2-ylmethyl-1H-pyrazol-4-yl)-pyrimidine hydrochloride], the figure is 1000 to 5000 nM.

For `Cn1cc(-c2cccc(-c3ncc(-c4cnn(CCc5ccccn5)c4)cn3)c2)cn1` [Example 47, 2-[3-(1-Methyl-1H-pyrazol-4-yl)-phenyl]-5-[1-(2-pyridin-2-yl-ethyl)-1H-pyrazol-4-yl]-pyrimidine], the IC50 fell in the range of 100 to 1000 nM. As to `Cn1cc(-c2cccc(-c3ncc(-c4cnn([C@@H]5CCC[S@@+]([O-])C5)c4)cn3)c2)cn1` (racemic) [Example 235, 2-[3-(1-Methyl-1H-pyrazol-4-yl)-phenyl]-5-[1-(Trans-1-oxo-tetrahydro-thiopyran-3-yl)-1H-pyrazol-4-yl]-pyrimidine], the IC50 fell in the range of 100 to 1000 nM. Take `Cn1cc(-c2cc(O)cc(-c3ncc(-c4cnn(C5CCNCC5)c4)cn3)c2)cn1` [Example 34, 3-(1-Methyl-1H-pyrazol-4-yl)-5-[5-(1-piperidin-4-yl-1H-pyrazol-4-yl)-pyrimidin-2-yl]-phenol Formate]: the IC50 lay in the range of 100 to 1000 nM. Under `Cn1cc(-c2cccc(-c3ncc(-c4cn(C5CCOCC5)nc4C(=O)NCCO)cn3)c2)cn1` [Example 154, 4-{2-[3-(1-Methyl-1H-pyrazol-4-yl)-phenyl]-pyrimidin-5-yl}-1-(tetrahydro-pyran-4-yl)-1H-pyrazole-3-carboxylic acid (2-hydroxy-ethyl)-amide] stands 1000 to 5000 nM.

As to `Cn1cc(-c2cccc(-c3ncc(-c4cnn(CC(=O)N5CCC5)c4)cn3)c2)cn1` [Example 77, 1-Azetidin-1-yl-2-(4-{2-[3-(1-methyl-1H-pyrazol-4-yl)-phenyl]-pyrimidin-5-yl}-pyrazol-1-yl)-ethanone], the IC50 fell in the range of 100 to 1000 nM. For the compound `CN(C)CCNC(=O)[C@H]1CC[C@H](n2cc(-c3cnc(-c4cccc(-c5cnn(C)c5)c4)nc3)cn2)CC1` [Example 171, 4-(4-{2-[3-(1-Methyl-1H-pyrazol-4-yl)-phenyl]-pyrimidin-5-yl}-pyrazol-1-yl)-cyclohexanecarboxylic acid (2-dimethylamino-ethyl)-amide], the IC50 was less than 100 nM. `CN(C)C(=O)[C@H]1CC[C@H](n2cc(-c3cnc(-c4cccc(-c5ccc(N)nn5)c4)nc3)cn2)CC1` [Example 239, Trans-4-(4-{2-[3-(6-Amino-pyridazin-3-yl)-phenyl]-pyrimidin-5-yl}-pyrazol-1-yl)-cyclohexanecarboxylic acid dimethylamide]: the 50% inhibitory concentration (IC50) lay in the range of 100 to 1000 nM. On to `CN(C)C(=O)C1CC2COCC(C1)C2n1cc(-c2cnc(-c3cccc(-c4cnn(C)c4)c3)nc2)cn1` (mixture of isomers) [Example 273, trans,cis-9-(4-{2-[3-(1-Methyl-1H-pyrazol-4-yl)-phenyl]-pyrimidin-5-yl}-pyrazol-1-yl)-3-oxa-bicyclo[3.3.1]nonane-7-carboxylic acid dimethylamide], for which the IC50 was in the range of 100 to 1000 nM. As for `CNC(=O)C(CCO)n1cc(-c2cnc(-c3cccc(-c4cnn(C)c4)c3)nc2)cn1` (stereo not drawn) [Example 169, 4-Hydroxy-N-methyl-2-(4-{2-[3-(1-methyl-1H-pyrazol-4-yl)-phenyl]-pyrimidin-5-yl}-pyrazol-1-yl)-butyramide], the IC50 was 1000 to 5000 nM.

As to `Cn1cc(-c2cccc(-c3ncc(-c4cnn([C@@H]5CCNC5)c4)cn3)c2)cn1` [Example 116, 2-[3-(1-Methyl-1H-pyrazol-4-yl)-phenyl]-5-((R)-1-pyrrolidin-3-yl-1H-pyrazol-4-yl)-pyrimidine], the IC50 was in the range of 100 to 1000 nM. As for `Cn1cc(-c2cccc(-c3ncc(-c4cnn(C5CCNCC5)c4)cn3)c2)cn1` [Example 1, 2-[3-(1-Methyl-1H-pyrazol-4-yl)-phenyl]-5-(1-piperidin-4-yl-1H-pyrazol-4-yl)-pyrimidine hydrochloride], the IC50 fell in the range of 100 to 1000 nM.

For the compound `Cn1cc(-c2cccc(-c3ncc(-c4cnn([C@H]5CC[C@]6(CCC(=O)N6C)CC5)c4)cn3)c2)cn1` [Example 285, Cis-1-Methyl-8-(4-{2-[3-(1-methyl-1H-pyrazol-4-yl)-phenyl]-pyrimidin-5-yl}-pyrazol-1-yl)-1-aza-spiro[4.5]decan-2-one], the IC50 is less than 100 nM. Consider `Cn1cc(-c2cccc(-c3ncc(-c4cnn(C5CCN(C(=O)C6CC(O)C6)CC5)c4)cn3)c2)cn1` (stereo not drawn) [Example 120, (3-Hydroxy-cyclobutyl)-[4-(4-{2-[3-(1-methyl-1H-pyrazol-4-yl)-phenyl]-pyrimidin-5-yl}-pyrazol-1-yl)-piperidin-1-yl]-methanone], for which the IC50 fell in the range of 100 to 1000 nM. Consider `Cn1cc(-c2cccc(-c3ncc(-c4cn(C5CCOCC5)nc4C(N)=O)cn3)c2)cn1` [Example 137, 4-{2-[3-(1-Methyl-1H-pyrazol-4-yl)-phenyl]-pyrimidin-5-yl}-1-(tetrahydro-pyran-4-yl)-1H-pyrazole-3-carboxylic acid amide], for which the IC50 fell in the range of 1000 to 5000 nM. For `Cn1cc(-c2cccc(-c3ncc(-c4cnn([C@H]5C=C[C@@H](O)C5)c4)cn3)c2)cn1` [Example 231, (1S,4R)-4-[4-[2-[3-(1-methylpyrazol-4-yl)phenyl]pyrimidin-5-yl]pyrazol-1-yl]cyclopent-2-en-1-ol], the IC50 was 100 to 1000 nM.

On to `Cn1cc(-c2cccc(-c3ncc(-c4cnn([C@@H]5CCCN(S(C)(=O)=O)C5)c4)cn3)c2)cn1` [Example 268, 5-[(R)-1-(1-Methanesulfonyl-piperidin-3-yl)-1H-pyrazol-4-yl]-2-[3-(1-methyl-1H-pyrazol-4-yl)-phenyl]-pyrimidine], for which the IC50 was less than 100 nM. As to `Cc1ncc(-c2cccc(-c3ncc(-c4cnn(CC(=O)N5CCCC5)c4)cn3)c2)s1` [Example 56, 2-(4-{2-[3-(2-Methyl-thiazol-5-yl)-phenyl]-pyrimidin-5-yl}-pyrazol-1-yl)-1-pyrrolidin-1-yl-ethanone], the IC50 fell in the range of 100 to 1000 nM. Under `Cn1cc(-c2cccc(-c3ncc(-c4cnn(CCC5CCOC5=O)c4)cn3)c2)cn1` (stereo not drawn) [Example 132, 3-[2-(4-{2-[3-(1-Methyl-1H-pyrazol-4-yl)-phenyl]-pyrimidin-5-yl}-pyrazol-1-yl)-ethyl]dihydro-furan-2-one] stands 100 to 1000 nM.
